Assays:
[1] = system: methicillin resistant Staphylococcus epidermidis (MRSE); assay: standard microtiter broth serial dilution test, MRSE strains; type: cell-based; conditions: 10 strains of MRSE; approximately 10^5 colony forming units, 35° for 18 hours
Experimental: (§1) The antibacterial activity of the compounds of the invention may be readily determined using conventional test procedures. For example the antibacterial activity of the compounds of the invention was determined using a standard mictoriter broth serial dilution test. In this test the broth was incubated with approximately 10^5 colony forming units of the test organism and incubated at 35° for 18 hours in the presence of test compound.
(§2) In this list the compounds of the invention were tested using this procedure against 23 strains of MRSA and 10 strains of MRSE and the resultant minimum inhibitory concentrations (MIC90) in mg/litre determined.

[2] = system: methicillin resistant Staphylococcus aureus (MRSA); assay: standard microtiter broth serial dilution test, MRSA strains; type: cell-based; conditions: 23 strains of MRSA; approximately 10^5 colony forming units, 35° for 18 hours
Experimental: as §1, §2

[3] = toxicity on administration to rats; type: in vivo; conditions: doses up to 1000 mg/kg
Text: Compounds of the invention are in general non-toxic and therapeutically effective doses.

For C[C@@H](O)[C@H]1C(=O)N2C(C(=O)[O-])=C3/C(=C/c4ccccc4)CCC[C@@H]3[C@H]12.[Na+] [Example 1, Sodium (8S,9R,10S,12R)-1-aza-10-(1-Hydroxyethyl)-11-oxo-4-[(E)-phenylmethylene]-tricyclo-[7,2,0,0^3.8]-undec-2-ene-2-carboxylate], the “MRSE MIC90” value [1] was 4 µg/mL and the “MRSA MIC90” value [2] was 8 µg/mL.

In the case of C[C@@H](O)[C@H]1C(=O)N2C(C(=O)[O-])=C3/C(=C/c4nc(-c5ccncc5)cs4)CCC[C@@H]3[C@H]12.[Na+] [Example 3, Sodium (8S,9R,10S,12R)-1-aza-10-(1-Hydroxyethyl)-11-oxo-4-[(E)-(4-(4′-pyridyl)thiazol-2-yl)methylene]-tricyclo-[7,2,0,0^3.8]-undec-2-ene-2-carboxylate], the “MRSE MIC90” value [1] is reported as 2 µg/mL and the “MRSA MIC90” value [2] is reported as 4 µg/mL.

For C[C@@H](O)[C@H]1C(=O)N2C(C(=O)[O-])=C3/C(=C/c4ccncc4)CCC[C@@H]3[C@H]12.[Na+] [Example 5, Sodium (8S,9R,10S,12R)-1-aza-10-(1-Hydroxyethyl)-11-oxo-4-[(E)-(pyrid-4-yl)methylene]-tricyclo-[7,2,0,0^3.8]-undec-2-ene-2-carboxylate], the “MRSE MIC90” value [1] was 2 µg/mL, the “MRSA MIC90” value [2] was 4 µg/mL and the untoward effects [3] was “no untoward effects”.

With C[C@@H](O)[C@H]1C(=O)N2C(C(=O)[O-])=C3/C(=C/c4ccc([N+](=O)[O-])cc4)CCC[C@@H]3[C@H]12.[Na+] [Example 6, Sodium (8S,9R,10S,12R)-1-aza-10-(1-Hydroxyethyl)-11-oxo-4-[(E)-(4-nitrophenyl)methylene]-tricyclo-[7,2,0,0^3.8]-undec-2-ene-2-carboxylate] the “MRSE MIC90” value [1] was 2 µg/mL and the “MRSA MIC90” value [2] was 2 µg/mL.

In the case of C[C@@H](O)[C@H]1C(=O)N2C(C(=O)[O-])=C3/C(=C/c4nc(-c5ccccc5)cs4)CCC[C@@H]3[C@H]12.[Na+] [Example 7, Sodium (8S,9R,10S,12R)-1-aza-10-(1-Hydroxyethyl)-11-oxo-4-[(E)-(4-phenylthiazol-2-yl)methylene]-tricyclo-[7,2,0,0^3.8]-undec-2-ene-2-carboxylate], the “MRSE MIC90” value [1] is reported as 2 µg/mL and the “MRSA MIC90” value [2] is reported as 4 µg/mL.

In the case of C[C@@H](O)[C@H]1C(=O)N2C(C(=O)[O-])=C3/C(=C/c4cccc(-c5ccncc5)c4)CCC[C@@H]3[C@H]12.[Na+] [Example 8, Sodium (8S,9R,10S,12R)-1-aza-10-(1-Hydroxyethyl)-11-oxo-4-[(E)-(3-(4′-pyridyl)phenyl)methylene]-tricyclo-[7,2,0,0^3.8]-undec-2-ene-2-carboxylate], the “MRSE MIC90” value [1] is reported as 2 µg/mL and the “MRSA MIC90” value [2] is reported as 2 µg/mL.

For Cc1cc(/C=C2\CCC[C@H]3C2=C(C(=O)[O-])N2C(=O)[C@H]([C@@H](C)O)[C@@H]32)cc(C)n1.[Na+] [Example 9, Sodium (8S,9R,10S,12R)-1-aza-10-(1-Hydroxyethyl)-11-oxo-4-[(E)-(2,6-dimethylpyridin-4-yl)methylene]-tricyclo-[7,2,0,0^3.8]-undec-2-ene-2-carboxylate], the “MRSE MIC90” value [1] was 4 µg/mL and the “MRSA MIC90” value [2] was 8 µg/mL.

For Cc1cc(/C=C2\CCC[C@H]3C2=C(C(=O)[O-])N2C(=O)[C@H]([C@@H](C)O)[C@@H]32)ccn1.[Na+] [Example 10, Sodium (8S,9R,10S,12R)-1-aza-10-(1-Hydroxyethyl)-11-oxo-4-[(E)-(2-methylpyridin-4-yl)methylene]-tricyclo-[7,2,0,0^3.8]-undec-2-ene-2-carboxylate], the “MRSE MIC90” value [1] was 4 µg/mL and the “MRSA MIC90” value [2] was 8 µg/mL.

For C[C@@H](O)[C@H]1C(=O)N2C(C(=O)[O-])=C3/C(=C/c4cc5ccccc5o4)CCC[C@@H]3[C@H]12.[Na+] [Example 11], the “MRSE MIC90” value [1] was 2 µg/mL and the “MRSA MIC90” value [2] was 4 µg/mL.

In the case of C[C@@H](O)[C@H]1C(=O)N2C(C(=O)[O-])=C3/C(=C/c4ccnc(Cl)c4)CCC[C@@H]3[C@H]12.[Na+] [Example 12], the “MRSE MIC90” value [1] is reported as 2 µg/mL and the “MRSA MIC90” value [2] is reported as 4 µg/mL.

For C[C@@H](O)[C@H]1C(=O)N2C(C(=O)[O-])=C3/C(=C/c4cc5cnccc5o4)CCC[C@@H]3[C@H]12.[Na+] [Example 13], the “MRSE MIC90” value [1] was 4 µg/mL and the “MRSA MIC90” value [2] was 4 µg/mL.

For C[C@@H](O)[C@H]1C(=O)N2C(C(=O)[O-])=C3/C(=C/c4ccnc(N)c4)CCC[C@@H]3[C@H]12.[Na+] [Example 14, Sodium (8S,9R,10S,12R)-1-aza-10-(1-Hydroxyethyl)-11-oxo-4-[(E)-(2-aminopyrid-4-yl)methylene]-tricyclo-[7,2,0,0^3.8]-undec-2-ene-2-carboxylate], the “MRSE MIC90” value [1] was 4 µg/mL and the “MRSA MIC90” value [2] was 8 µg/mL.

For C[C@@H](O)[C@H]1C(=O)N2C(C(=O)[O-])=C3/C(=C/c4ccc(Cl)c([N+](=O)[O-])c4)CCC[C@@H]3[C@H]12.[Na+] [Example 15, Sodium (8S,9R,10S,12R)-1-aza-10-(1-Hydroxyethyl)-11-oxo-4-[(E)-(4-chloro-3-nitro-phenyl)methylene]-tricyclo-[7,2,0,0^3.8]-undec-2-ene-2-carboxylate], the “MRSE MIC90” value [1] was 2 µg/mL and the “MRSA MIC90” value [2] was 4 µg/mL.

In the case of C[C@@H](O)[C@H]1C(=O)N2C(C(=O)[O-])=C3/C(=C/c4cc5ccccc5s4)CCC[C@@H]3[C@H]12.[Na+] [Example 16, Sodium (8S,9R,10S,12R)-1-aza-10-(1-Hydroxyethyl)-11-oxo-4-[(E)-(benzothiophen-2-yl)methylene]-tricyclo-[7,2,0,0^3.8]-undec-2-ene-2-carboxylate], the “MRSE MIC90” value [1] is reported as 1 µg/mL and the “MRSA MIC90” value [2] is reported as 2 µg/mL.

For C[C@@H](O)[C@H]1C(=O)N2C(C(=O)[O-])=C3/C(=C/c4csc5ccccc45)CCC[C@@H]3[C@H]12.[Na+] [Example 17, Sodium (8S,9R,10S,12R)-1-aza-10-(1-Hydroxyethyl)-11-oxo-4-[(E-)(benzothiophen-3-yl)methylene]-tricyclo-[7,2,0,0^3.8]-undec-2-ene-2-carboxylate], the “MRSE MIC90” value [1] was 2 µg/mL and the “MRSA MIC90” value [2] was 4 µg/mL.

With C[C@@H](O)[C@H]1C(=O)N2C(C(=O)[O-])=C3/C(=C/c4cc(-c5cc[n+](CC(N)=O)cc5)cs4)CCC[C@@H]3[C@H]12 [Example 18, (8S,9R,10S,12R)-1-aza-10-(1-Hydroxyethyl)-11-oxo-4-[(E)-(4-(1′-(carbamoylmethyl)pyridinium-4-′-yl)thiophen-2-yl)methylene]-tricyclo-[7,2,0,0^3.8]-undec-2-ene-2-carboxylate] the “MRSE MIC90” value [1] was 2 µg/mL and the “MRSA MIC90” value [2] was 4 µg/mL.
